We go through eleven molecules from patent publication US20220402862A1 (Intellia Therapeutics, Inc., priority 2019, published 2022).

Series [1] in a line: RNA encapsulation efficiency of LNPs (Ribogreen fluorescence assay). It counts as physicochemical. The following applies: LNP. How it is done:
A fluorescence-based assay (Ribogreen®, ThermoFisher Scientific) is used to determine total RNA concentration and free RNA. Encapsulation efficiency is calculated as (Total RNA-Free RNA)/Total RNA. LNP samples are diluted appropriately with 1× TE buffer containing 0.2% Triton-X 100 to determine total RNA or 1× TE buffer to determine free RNA. Standard curves are prepared by utilizing the starting RNA solution used to make the compositions and diluted in 1× TE buffer +/− 0.2% Triton-X 100. Diluted RiboGreen® dye (according to the manufacturer's instructions) is then added to each of the standards and samples and allowed to incubate for approximately 10 minutes at room temperature, in the absence of light. A SpectraMax M5 Microplate Reader (Molecular Devices) is used to read the samples with excitation, auto cutoff and emission wavelengths set to 488 nm, 515 nm, and 525 nm respectively. Total RNA and free RNA are determined from the appropriate standard curves.
Encapsulation efficiency is calculated as (Total RNA-Free RNA)/Total RNA. The same procedure may be used for determining the encapsulation efficiency of a DNA-based cargo component. In a fluorescence-based assay, for single-strand DNA Oligreen Dye may be used, and for double-strand DNA, Picogreen Dye. Alternatively, the total RNA concentration can be determined by a reverse-phase ion-pairing (RP-IP) HPLC method. Triton X-100 is used to disrupt the LNPs, releasing the RNA. The RNA is then separated from the lipid components chromatographically by RP-IP HPLC and quantified against a standard curve using UV absorbance at 260 nm.

Series [2] is described as follows: Dynamic light scattering of LNPs: Z-average diameter, number average diameter, PDI. Type of series: physicochemical. The following applies: LNP. How it is done:
Dynamic Light Scattering (“DLS”) is used to characterize the polydispersity index (“PDI”) and size of the LNPs of the present disclosure. DLS measures the scattering of light that results from subjecting a sample to a light source. PDI, as determined from DLS measurements, represents the distribution of particle size (around the mean particle size) in a population, with a perfectly uniform population having a PDI of zero.
LNP compositions are analyzed for average particle size, polydispersity index (PDI), total RNA content, encapsulation efficiency of RNA, and zeta potential. LNP compositions may be further characterized by lipid analysis, AF4-MALS, NTA, and/or cryo-EM. Average particle size and polydispersity are measured by dynamic light scattering (DLS) using a Malvern Zetasizer DLS instrument or Wyatt NanoStar. LNP samples were diluted with PBS buffer prior to being measured by DLS. Z-average diameter which is an intensity-based measurement of average particle size is reported along with number average diameter and PDI. A Malvern Zetasizer or Wyatt NanoStar instrument is also used to measure the zeta potential of the LNP. Samples are diluted 1:17 (50 μL into 800 μL) in 0.1× PBS, pH 7.4 prior to measurement.

In a further series the test system is Transthyretin (TTR). As to the kind of experiment: Serum TTR ELISA in mice after LNP dosing. Type of series: in vivo, CD-1 female mice. The following applies: guide G282 experiments; for Serum TTR % TSS: mouse serum TTR relative to TSS control; for Serum TTR: mouse serum, ELISA. The procedure: CD-1 female mice ranging from 6-10 weeks of age were used in each study. Animals were weighed and grouped according to body weight for preparing dosing solutions based on group average weight. LNPs were dosed via the lateral tail vein in a volume of 0.2 mL per animal (approximately 10 mL per kilogram body weight). The animals were periodically observed for adverse effects for at least 24 hours post dose. For studies measuring in vivo editing in liver, CD-1 female mice were dosed at 0.1 mg/kg unless otherwise noted. Animals were euthanized at 6 or 7 days by ex sanguination via cardiac puncture under isoflurane anesthesia. Liver tissue was collected from each animal for DNA extraction and analysis. Blood was collected into serum separator tubes or into tubes containing buffered sodium citrate for plasma as described herein. Cohorts of mice were measured for editing by Next-Generation Sequencing (NGS).
Blood was collected and the serum was isolated as indicated. The total mouse TTR serum levels were determined using a Mouse Prealbumin (Transthyretin) ELISA Kit (Aviva Systems Biology, Cat. OKIA00111). Briefly, sera were serial diluted with kit sample diluent to a final dilution of 10,000-fold for 0.1 mg/kg dose and final dilutions of 10,000-fold and of 2,500-fold for 0.3 mg/kg. This diluted sample was then added to the ELISA plates and the assay was carried out according to the manufacturer's directions.

Setting [3] is: sg:mRNA 1:1.3, N/P about 6, amine lipid/DSPC/cholesterol/PEG-2k-DMG 50/9/38/3, Table 2, Experiment 1.
The mark [4] stands for this setting: sg:mRNA 1:1.3, N/P about 6, 50/9/38/3, Table 2, Experiment 1.
The mark [5] stands for this setting: sg:mRNA 1:1, N/P about 6, amine lipid/DSPC/cholesterol/PEG-2k-DMG 50/9/38/3, Table 2, Experiments 2-20.
The mark [6] stands for this setting: sg:mRNA 1:1, N/P about 6, 50/9/38/3, Table 2, Experiments 2-20.

On to `CCCCC/C=C\C/C=C\CCCCCCCC(=O)OCC(COC(=O)CCC(OCCCCCCCC)OCCCCCCCC)COC(=O)OCCCN(C)C` (stereo not drawn) [Compound 2, 3-((4,4-bis(octyloxy)butanoyl)oxy)-2-((((3-(dimethylamino)propoxy)carbonyl)oxy)methyl)propyl (9Z,12Z)-octadeca-9,12-dienoate], for which, in series [1] (setting [3]), the “Encapsulation (%)” value came out at 96%. In series [2] (setting [4]), the “Number mean (nm)” value came out at 59.17 nm, the PDI came to 0.046 and the “Z-avg (nm)” value stood at 75.64 nm. In addition, in the series with Transthyretin (TTR), the “Serum TTR % TSS” value amounted to 90% and the “Serum TTR” value amounted to 1114 µg/mL.
`CCCCC/C=C\C/C=C\CCCCCCCC(=O)OCC(COC(=O)CCC(OCCCCCCCC)OCCCCCCCC)COC(=O)OCCCN1CCCC1` (stereo not drawn) [Compound 3, 3-((4,4-bis(octyloxy)butanoyl)oxy)-2-((((3-(pyrrolidin-1-yl)propoxy)carbonyl)oxy)methyl)propyl (9Z,12Z)-octadeca-9,12-dienoate]: the “Encapsulation (%)” value in series [1] (setting [3]) came to 91%. Moreover, in series [2] (setting [4]), the “Number mean (nm)” value was found to be 61.67 nm, the PDI was 0.079 and the “Z-avg (nm)” value is reported as 86.16 nm. In addition, in the series on Transthyretin (TTR), the “Serum TTR % TSS” value was 105% and the “Serum TTR” value came out at 1297 µg/mL.
For `CCCCC/C=C\C/C=C\CCCCCCCC(=O)OCC(COC(=O)CCC(OCCCCCCCC)OCCCCCCCC)COC(=O)OCCCN(C)CCN(C)C` (stereo not drawn) [Compound 4, 13-(((4,4-bis(octyloxy)butanoyl)oxy)methyl)-2,5-dimethyl-10-oxo-9,11-dioxa-2,5-diazatetradecan-14-yl (9Z,12Z)-octadeca-9,12-dienoate], in series [1] (setting [3]), the “Encapsulation (%)” value is listed as 100%. For the same molecule, in series [2] (setting [4]), the “Number mean (nm)” value is 44.92 nm, the PDI turned out to be 0.129 and the “Z-avg (nm)” value is given as 72.11 nm. In the series with Transthyretin (TTR), the “Serum TTR % TSS” value turned out to be 109% and the “Serum TTR” value is 1347 µg/mL.
As for `CCCCC/C=C\C/C=C\CCCCCCCC(=O)OCC(COC(=O)CCC(OCCCCCCCC)OCCCCCCCC)COC(=O)OCC1CCCN(CC)C1` (stereo not drawn) [Compound 5, 3-((4,4-bis(octyloxy)butanoyl)oxy)-2-(((((1-ethylpiperidin-3-yl)methoxy)carbonyl)oxy)methyl)propyl (9Z,12Z)-octadeca-9,12-dienoate], the “Encapsulation (%)” value in series [1] (setting [3]) stood at 98%. Further, in series [2] (setting [4]), the “Number mean (nm)” value was found to be 50.89 nm, the PDI turned out to be 0.059 and the “Z-avg (nm)” value stood at 66.28 nm. For the same molecule, in the series with Transthyretin (TTR), the “Serum TTR % TSS” value is listed as 60% and the “Serum TTR” value amounted to 737 µg/mL.
For `CCCCC/C=C\C/C=C\CCCCCCCC(=O)OCC(COC(=O)CCC(OCCCCCCCC)OCCCCCCCC)COC(=O)NCCCN(C)C` (stereo not drawn) [Compound 6, 3-((4,4-bis(octyloxy)butanoyl)oxy)-2-((((3-(dimethylamino)propyl)carbamoyl)oxy)methyl)propyl (9Z,12Z)-octadeca-9,12-dienoate], in series [1] (setting [3]), the “Encapsulation (%)” value was found to be 100%. Further, in series [2] (setting [4]), the “Number mean (nm)” value is listed as 41.82 nm, the PDI turned out to be 0.066 and the “Z-avg (nm)” value is recorded as 56.86 nm. In the series on Transthyretin (TTR), the “Serum TTR % TSS” value is recorded as 90% and the “Serum TTR” value was 1107 µg/mL.
As for `CCCCC/C=C\C/C=C\CCCCCCCC(=O)OCC(COC(=O)CCC(OCCCCCCCC)OCCCCCCCC)COC(=O)NCCCN(CC)CC` (stereo not drawn) [Compound 7, 3-((4,4-bis(octyloxy)butanoyl)oxy)-2-((((3-(diethylamino)propyl)carbamoyl)oxy)methyl)propyl (9Z,12Z)-octadeca-9,12-dienoate], the “Encapsulation (%)” value in series [1] (setting [5]) came out at 99%. Moreover, in series [2] (setting [6]), the “Number mean (nm)” value is recorded as 43.91 nm, the PDI was 0.126 and the “Z-avg (nm)” value is reported as 67.61 nm. In the series on Transthyretin (TTR), the “Serum TTR % TSS” value amounted to 104% and the “Serum TTR” value came to 940 µg/mL.
Turning to `CCCCC/C=C\C/C=C\CCCCCCCC(=O)OCC(COC(=O)CCC(OCCCCCCCC)OCCCCCCCC)COC(=O)NCCCN1CCCC1` (stereo not drawn) [Compound 8, 3-((4,4-bis(octyloxy)butanoyl)oxy)-2-((((3-(pyrrolidin-1-yl)propyl)carbamoyl)oxy)methyl)propyl (9Z,12Z)-octadeca-9,12-dienoate], in series [1] (setting [5]), the “Encapsulation (%)” value is 100%. Also, in series [2] (setting [6]), the “Number mean (nm)” value worked out at 37.17 nm, the PDI is 0.093 and the “Z-avg (nm)” value is 53.88 nm. In addition, in the series with Transthyretin (TTR), the “Serum TTR % TSS” value stood at 106% and the “Serum TTR” value was found to be 962 µg/mL.
Consider `CCCCC/C=C\C/C=C\CCCCCCCC(=O)OCC(COC(=O)CCC(OCCCCCCCC)OCCCCCCCC)COC(=O)OCCN(CC)CC` (stereo not drawn) [Compound 9, 3-((4,4-bis(octyloxy)butanoyl)oxy)-2-((((2-(diethylamino)ethoxy)carbonyl)oxy)methyl)propyl (9Z,12Z)-octadeca-9,12-dienoate], for which the “Encapsulation (%)” value in series [1] (setting [5]) is listed as 89%. For the same molecule, in series [2] (setting [6]), the “Number mean (nm)” value is 45.11 nm, the PDI is on record as 0.058 and the “Z-avg (nm)” value turned out to be 62.99 nm. In the series with Transthyretin (TTR), the “Serum TTR % TSS” value came out at 100% and the “Serum TTR” value stood at 865 µg/mL.
`CCCCC/C=C\C/C=C\CCCCCCCC(=O)OCC(COC(=O)CCC(OCCCCCCCC)OCCCCCCCC)COC(=O)OCCN1CCCC1` (stereo not drawn) [Compound 10, 3-((4,4-bis(octyloxy)butanoyl)oxy)-2-((((2-(pyrrolidin-1-yl)ethoxy)carbonyl)oxy)methyl)propyl (9Z,12Z)-octadeca-9,12-dienoate]: the “Encapsulation (%)” value in series [1] (setting [5]) amounted to 90%. Moreover, in series [2] (setting [6]), the “Number mean (nm)” value turned out to be 39.12 nm, the PDI is 0.086 and the “Z-avg (nm)” value came out at 57.21 nm. In the series with Transthyretin (TTR), the “Serum TTR % TSS” value was 96% and the “Serum TTR” value came out at 871 µg/mL.
In the case of `CCCCC/C=C\C/C=C\CCCCCCCC(=O)OCC(COC(=O)CCC(OCCCCCCCC)OCCCCCCCC)COC(=O)OCCCCN(CC)CC` (stereo not drawn) [Compound 11, 3-((4,4-bis(octyloxy)butanoyl)oxy)-2-((((4-(diethylamino)butoxy)carbonyl)oxy)methyl)propyl (9Z,12Z)-octadeca-9,12-dienoate], the “Encapsulation (%)” value in series [1] (setting [5]) came out at 97%. Moreover, in series [2] (setting [6]), the “Number mean (nm)” value was determined as 68.35 nm, the PDI turned out to be 0.022 and the “Z-avg (nm)” value is reported as 85.35 nm. For the same molecule, in the series on Transthyretin (TTR), the “Serum TTR % TSS” value is reported as 78% and the “Serum TTR” value worked out at 706 µg/mL.
Turning to `CCCCC/C=C\C/C=C\CCCCCCCC(=O)OCC(COC(=O)CCC(OCCCCCCCC)OCCCCCCCC)COC(=O)OCCCCN1CCCC1` (stereo not drawn) [Compound 13, 3-((4,4-bis(octyloxy)butanoyl)oxy)-2-((((4-(pyrrolidin-1-yl)butoxy)carbonyl)oxy)methyl)propyl (9Z,12Z)-octadeca-9,12-dienoate], the “Encapsulation (%)” value in series [1] (setting [5]) is on record as 97%. In series [2] (setting [6]), the “Number mean (nm)” value came out at 74.6 nm, the PDI was determined as 0.013 and the “Z-avg (nm)” value stood at 91.12 nm. In addition, in the series on Transthyretin (TTR), the “Serum TTR % TSS” value is on record as 93% and the “Serum TTR” value was 837 µg/mL.
